Experimental data published in ChEMBL document CHEMBL3046789, “Effect of s-metolachlor application timing on cabbage tolerance” (Crop Prot, 2007).

Experiments:
Assay type in all cases: organism-based
[1] = system: Brassica oleracea var. capitata; assay: Phyototoxicity against Brassica oleracea var. capitata (cabbage) assessed as crop injury at 1600 g a.i./ha applied 1 to 2 days prior to transplantation measured on day 28 post-transplantation; conditions: in vivo, other
[2] = system: Brassica oleracea var. capitata; assay: Phyototoxicity against Brassica oleracea var. capitata (cabbage) assessed as crop injury at 800 g a.i./ha applied 1 to 2 days prior to transplantation followed by incorporation into soil measured on day 14 post-transplantation; conditions: in vivo, other
[3] = system: Brassica oleracea var. capitata; assay: Phyototoxicity against Brassica oleracea var. capitata (cabbage) assessed as crop injury at 800 g a.i./ha applied 1 to 2 days prior to transplantation followed by incorporation into soil measured on day 28 post-transplantation; conditions: in vivo, other
[4] = system: Brassica oleracea var. capitata; assay: Phyototoxicity against Brassica oleracea var. capitata (cabbage) assessed as crop injury at 1600 g a.i./ha applied 1 to 2 days after transplantation measured on day 7 post-transplantation; conditions: in vivo, other
[5] = system: Brassica oleracea var. capitata; assay: Phytotoxicity against Brassica oleracea var. capitata (cabbage) assessed as yield at 1600 g a.i./ha applied 1 to 2 days prior to transplantation followed by incorporation into soil (reference value: 25.9 tons/ha); conditions: in vivo, other
[6] = system: Brassica oleracea var. capitata; assay: Phyototoxicity against Brassica oleracea var. capitata (cabbage) assessed as crop injury at 2400 g a.i./ha applied 1 to 2 days prior to transplantation followed by incorporation into soil measured on day 14 post-transplantation; conditions: in vivo, other
[7] = system: Brassica oleracea var. capitata; assay: Phytotoxicity against Brassica oleracea var. capitata (cabbage) assessed as yield at 2400 g a.i./ha applied 1 to 2 days prior to transplantation (reference value: 25.9 tons/ha); conditions: in vivo, other
[8] = system: Brassica oleracea var. capitata; assay: Phyototoxicity against Brassica oleracea var. capitata (cabbage) assessed as crop injury at 1600 g a.i./ha applied 1 to 2 days prior to transplantation measured on day 7 post-transplantation; conditions: in vivo, other
[9] = system: Brassica oleracea var. capitata; assay: Phyototoxicity against Brassica oleracea var. capitata (cabbage) assessed as crop injury at 1600 g a.i./ha applied 1 to 2 days after transplantation measured on day 28 post-transplantation; conditions: in vivo, other
[10] = system: Brassica oleracea var. capitata; assay: Phytotoxicity against Brassica oleracea var. capitata (cabbage) assessed as cabbage head weight at 2400 g a.i/ha applied 1 to 2 days prior to transplantation (reference value: 2465 g); conditions: in vivo, other
[11] = system: Brassica oleracea var. capitata; assay: Phyototoxicity against Brassica oleracea var. capitata (cabbage) assessed as crop injury at 1600 g a.i./ha applied 1 to 2 days prior to transplantation followed by incorporation into soil measured on day 14 post-transplantation; conditions: in vivo, other
[12] = system: Brassica oleracea var. capitata; assay: Phyototoxicity against Brassica oleracea var. capitata (cabbage) assessed as crop injury at 1600 g a.i./ha applied 1 to 2 days prior to transplantation followed by incorporation into soil measured on day 28 post-transplantation; conditions: in vivo, other
[13] = system: Brassica oleracea var. capitata; assay: Phyototoxicity against Brassica oleracea var. capitata (cabbage) assessed as crop injury at 1600 g a.i./ha applied 1 to 2 days prior to transplantation measured on day 14 post-transplantation; conditions: in vivo, other
[14] = system: Brassica oleracea var. capitata; assay: Phyototoxicity against Brassica oleracea var. capitata (cabbage) assessed as crop injury at 1600 g a.i./ha applied 1 to 2 days prior to transplantation followed by incorporation into soil measured on day 7 post-transplantation; conditions: in vivo, other
[15] = system: Brassica oleracea var. capitata; assay: Phyototoxicity against Brassica oleracea var. capitata (cabbage) assessed as crop injury at 1600 g a.i./ha applied 1 to 2 days after transplantation measured on day 14 post-transplantation; conditions: in vivo
[16] = system: Brassica oleracea var. capitata; assay: Phytotoxicity against Brassica oleracea var. capitata (cabbage) assessed as cabbage head weight at 1600 g a.i/ha applied 1 to 2 days after transplantation (reference value: 2465 g); conditions: in vivo, other
[17] = system: Brassica oleracea var. capitata; assay: Phyototoxicity against Brassica oleracea var. capitata (cabbage) assessed as crop injury at 800 g a.i./ha applied 1 to 2 days prior to transplantation measured on day 14 post-transplantation; conditions: in vivo, other
[18] = system: Brassica oleracea var. capitata; assay: Phytotoxicity against Brassica oleracea var. capitata (cabbage) assessed as cabbage head weight at 800 g a.i/ha applied 1 to 2 days after transplantation (reference value: 2465 g); conditions: in vivo, other
[19] = system: Brassica oleracea var. capitata; assay: Phytotoxicity against Brassica oleracea var. capitata (cabbage) assessed as yield at 2400 g a.i./ha applied 1 to 2 days after transplantation (reference value: 25.9 tons/ha); conditions: in vivo, other
[20] = system: Brassica oleracea var. capitata; assay: Phyototoxicity against Brassica oleracea var. capitata (cabbage) assessed as crop injury at 2400 g a.i./ha applied 1 to 2 days prior to transplantation measured on day 14 post-transplantation; conditions: in vivo, other
[21] = system: Brassica oleracea var. capitata; assay: Phyototoxicity against Brassica oleracea var. capitata (cabbage) assessed as crop injury at 2400 g a.i./ha applied 1 to 2 days prior to transplantation measured on day 28 post-transplantation; conditions: in vivo, other
[22] = system: Brassica oleracea var. capitata; assay: Phytotoxicity against Brassica oleracea var. capitata (cabbage) assessed as decrease in number of marketable cabbage heads at 800 to 2400 g i.a./ha applied 1 to 2 days prior to transplantation followed by incorporation into soil relative to control; conditions: in vivo, other
[23] = system: Brassica oleracea var. capitata; assay: Phyototoxicity against Brassica oleracea var. capitata (cabbage) assessed as crop injury at 800 g a.i./ha applied 1 to 2 days prior to transplantation measured on day 7 post-transplantation; conditions: in vivo, other
[24] = system: Brassica oleracea var. capitata; assay: Phytotoxicity against Brassica oleracea var. capitata (cabbage) assessed as decrease in number of marketable cabbage heads at 800 to 2400 g i.a./ha applied 1 to 2 days prior to transplantation relative to control; conditions: in vivo, other
[25] = system: Brassica oleracea var. capitata; assay: Phytotoxicity against Brassica oleracea var. capitata (cabbage) assessed as cabbage head weight at 1600 g a.i/ha applied 1 to 2 days prior to transplantation followed by incorporation into soil (reference value: 2465 g); conditions: in vivo, other
[26] = system: Brassica oleracea var. capitata; assay: Phytotoxicity against Brassica oleracea var. capitata (cabbage) assessed as yield at 800 g a.i./ha applied 1 to 2 days after transplantation (reference value: 25.9 tons/ha); conditions: in vivo, other
[27] = system: Brassica oleracea var. capitata; assay: Phytotoxicity against Brassica oleracea var. capitata (cabbage) assessed as yield at 2400 g a.i./ha applied 1 to 2 days prior to transplantation followed by incorporation into soil (reference value: 25.9 tons/ha); conditions: in vivo, other
[28] = system: Brassica oleracea var. capitata; assay: Phyototoxicity against Brassica oleracea var. capitata (cabbage) assessed as crop injury at 800 g a.i./ha applied 1 to 2 days prior to transplantation followed by incorporation into soil measured on day 7 post-transplantation; conditions: in vivo, other
[29] = system: Brassica oleracea var. capitata; assay: Phyototoxicity against Brassica oleracea var. capitata (cabbage) assessed as crop injury at 2400 g a.i./ha applied 1 to 2 days prior to transplantation followed by incorporation into soil measured on day 7 post-transplantation; conditions: in vivo, other
[30] = system: Brassica oleracea var. capitata; assay: Phyototoxicity against Brassica oleracea var. capitata (cabbage) assessed as crop injury at 800 g a.i./ha applied 1 to 2 days prior to transplantation measured on day 28 post-transplantation; conditions: in vivo, other
[31] = system: Brassica oleracea var. capitata; assay: Phyototoxicity against Brassica oleracea var. capitata (cabbage) assessed as crop injury at 2400 g a.i./ha applied 1 to 2 days prior to transplantation measured on day 7 post-transplantation; conditions: in vivo, other
[32] = system: Brassica oleracea var. capitata; assay: Phytotoxicity against Brassica oleracea var. capitata (cabbage) assessed as yield at 1600 g a.i./ha applied 1 to 2 days after transplantation (reference value: 25.9 tons/ha); conditions: in vivo, other
[33] = system: Brassica oleracea var. capitata; assay: Phytotoxicity against Brassica oleracea var. capitata (cabbage) assessed as cabbage head weight at 2400 g a.i/ha applied 1 to 2 days after transplantation (reference value: 2465 g); conditions: in vivo, other
[34] = system: Brassica oleracea var. capitata; assay: Phyototoxicity against Brassica oleracea var. capitata (cabbage) assessed as crop injury at 800 g a.i./ha applied 1 to 2 days after transplantation measured on day 14 post-transplantation; conditions: in vivo
[35] = system: Brassica oleracea var. capitata; assay: Phytotoxicity against Brassica oleracea var. capitata (cabbage) assessed as cabbage head weight at 800 g a.i/ha applied 1 to 2 days prior to transplantation (reference value: 2465 g); conditions: in vivo
[36] = system: Brassica oleracea var. capitata; assay: Phytotoxicity against Brassica oleracea var. capitata (cabbage) assessed as cabbage head weight at 1600 g a.i/ha applied 1 to 2 days prior to transplantation (reference value: 2465 g); conditions: in vivo, other
[37] = system: Brassica oleracea var. capitata; assay: Phyototoxicity against Brassica oleracea var. capitata (cabbage) assessed as crop injury at 800 g a.i./ha applied 1 to 2 days after transplantation measured on day 28 post-transplantation; conditions: in vivo, other
[38] = system: Brassica oleracea var. capitata; assay: Phyototoxicity against Brassica oleracea var. capitata (cabbage) assessed as crop injury at 2400 g a.i./ha applied 1 to 2 days after transplantation measured on day 28 post-transplantation; conditions: in vivo, other
[39] = system: Brassica oleracea var. capitata; assay: Phytotoxicity against Brassica oleracea var. capitata (cabbage) assessed as cabbage head weight at 800 g a.i/ha applied 1 to 2 days prior to transplantation followed by incorporation into soil (reference value: 2465 g); conditions: in vivo, other
[40] = system: Brassica oleracea var. capitata; assay: Phytotoxicity against Brassica oleracea var. capitata (cabbage) assessed as decrease in number of marketable cabbage heads at 800 to 2400 g i.a./ha applied 1 to 2 days after transplantation relative to control; conditions: in vivo
[41] = system: Brassica oleracea var. capitata; assay: Phytotoxicity against Brassica oleracea var. capitata (cabbage) assessed as cabbage head weight at 2400 g a.i/ha applied 1 to 2 days prior to transplantation followed by incorporation into soil (reference value: 2465 g); conditions: in vivo, other
[42] = system: Brassica oleracea var. capitata; assay: Phyototoxicity against Brassica oleracea var. capitata (cabbage) assessed as crop injury at 2400 g a.i./ha applied 1 to 2 days after transplantation measured on day 7 post-transplantation; conditions: in vivo, other
[43] = system: Brassica oleracea var. capitata; assay: Phyototoxicity against Brassica oleracea var. capitata (cabbage) assessed as crop injury at 2400 g a.i./ha applied 1 to 2 days prior to transplantation followed by incorporation into soil measured on day 28 post-transplantation; conditions: in vivo, other
[44] = system: Brassica oleracea var. capitata; assay: Phytotoxicity against Brassica oleracea var. capitata (cabbage) assessed as yield at 800 g a.i./ha applied 1 to 2 days prior to transplantation (reference value: 25.9 tons/ha); conditions: in vivo, other
[45] = system: Brassica oleracea var. capitata; assay: Phytotoxicity against Brassica oleracea var. capitata (cabbage) assessed as yield at 800 g a.i./ha applied 1 to 2 days prior to transplantation followed by incorporation into soil (reference value: 25.9 tons/ha); conditions: in vivo, other
[46] = system: Brassica oleracea var. capitata; assay: Phyototoxicity against Brassica oleracea var. capitata (cabbage) assessed as crop injury at 2400 g a.i./ha applied 1 to 2 days after transplantation measured on day 14 post-transplantation; conditions: in vivo
[47] = system: Brassica oleracea var. capitata; assay: Phytotoxicity against Brassica oleracea var. capitata (cabbage) assessed as yield at 1600 g a.i./ha applied 1 to 2 days prior to transplantation (reference value: 25.9 tons/ha); conditions: in vivo, other
[48] = system: Brassica oleracea var. capitata; assay: Phyototoxicity against Brassica oleracea var. capitata (cabbage) assessed as crop injury at 800 g a.i./ha applied 1 to 2 days after transplantation measured on day 7 post-transplantation; conditions: in vivo, other

`CCc1cccc(C)c1N(C(=O)CCl)[C@@H](C)COC` [S-METOLACHLOR] gave an Activity [1] of 0%, an Activity [2] of 0% and an Activity [3] of 0%. For the same compound, the Activity [4] was 2%, the Crop_yield [5] was 23.4 tons/ha and the Activity [6] was 0%. It also gave a Crop_yield [7] of 25.4 tons/ha, an Activity [8] of 2% and an Activity [9] of 0%. For the same compound, the Activity [10] was 2460 g, the Activity [11] was 0% and the Activity [12] was 0%. It also gave an Activity [13] of 1%, an Activity [14] of 3% and an Activity [15] of 0%. It also gave an Activity [16] of 2556 g, an Activity [17] of 0% and an Activity [18] of 2310 g. It also gave a Crop_yield [19] of 27.7 tons/ha, an Activity [20] of 0% and an Activity [21] of 0%. The Activity [22] was “Non-toxic”, the Activity [23] was 2% and the Activity [24] was “Non-toxic”. For the same compound, the Activity [25] was 2255 g, the Crop_yield [26] was 24.5 tons/ha and the Crop_yield [27] was 25.7 tons/ha. It also gave an Activity [28] of 2%, an Activity [29] of 1% and an Activity [30] of 0%. The Activity [31] was 3%, the Crop_yield [32] was 26.4 tons/ha and the Activity [33] was 2676 g. It also gave an Activity [34] of 1%, an Activity [35] of 2386 g and an Activity [36] of 2540 g. For the same compound, the Activity [37] was 0%, the Activity [38] was 0% and the Activity [39] was 2413 g. The Activity [40] was “Non-toxic”, the Activity [41] was 2421 g and the Activity [42] was 0%. The Activity [43] was 0%, the Crop_yield [44] was 26.7 tons/ha and the Crop_yield [45] was 26.4 tons/ha. For the same compound, the Activity [46] was 0%, the Crop_yield [47] was 27.1 tons/ha and the Activity [48] was 3%.
